The values below come from patent US12421229B2, “Hydropyrido[1,2-α]pyrazine compounds for the treatment of autoimmune disease” (Hoffmann-La Roche Inc., priority 2019, dated 2025).

The assay concerns the target T1, human TLR8 (Homo sapiens, UniProt Q9NR97).
T1 construct: host or cells: HEK293 (HEK-Blue hTLR8)
T1 sequence (Q9NR97 27-1041): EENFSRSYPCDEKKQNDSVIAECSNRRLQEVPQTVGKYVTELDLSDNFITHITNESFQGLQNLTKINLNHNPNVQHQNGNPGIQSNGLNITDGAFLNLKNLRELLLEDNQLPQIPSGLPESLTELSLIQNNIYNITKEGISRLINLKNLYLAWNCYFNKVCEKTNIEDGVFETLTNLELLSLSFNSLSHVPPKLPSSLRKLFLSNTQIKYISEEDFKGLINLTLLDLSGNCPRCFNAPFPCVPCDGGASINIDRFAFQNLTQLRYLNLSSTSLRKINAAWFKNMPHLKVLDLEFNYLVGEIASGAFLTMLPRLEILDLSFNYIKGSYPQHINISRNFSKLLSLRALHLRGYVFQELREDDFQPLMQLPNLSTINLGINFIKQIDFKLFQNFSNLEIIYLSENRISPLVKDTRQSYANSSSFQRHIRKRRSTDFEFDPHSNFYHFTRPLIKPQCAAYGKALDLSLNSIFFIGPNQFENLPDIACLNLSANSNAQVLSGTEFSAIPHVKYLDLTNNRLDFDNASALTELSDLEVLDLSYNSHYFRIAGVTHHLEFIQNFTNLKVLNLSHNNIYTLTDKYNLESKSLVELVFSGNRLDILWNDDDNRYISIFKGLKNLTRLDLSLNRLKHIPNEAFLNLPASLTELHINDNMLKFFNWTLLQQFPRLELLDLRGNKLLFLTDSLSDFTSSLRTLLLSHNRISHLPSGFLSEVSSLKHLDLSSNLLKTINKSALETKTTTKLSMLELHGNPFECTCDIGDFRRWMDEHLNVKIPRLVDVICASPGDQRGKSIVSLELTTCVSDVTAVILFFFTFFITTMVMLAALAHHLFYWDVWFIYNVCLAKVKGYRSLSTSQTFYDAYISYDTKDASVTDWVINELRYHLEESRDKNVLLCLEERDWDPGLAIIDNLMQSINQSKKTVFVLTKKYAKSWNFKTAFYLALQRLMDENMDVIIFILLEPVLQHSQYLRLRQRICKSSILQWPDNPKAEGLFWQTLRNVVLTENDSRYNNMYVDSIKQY
Description: HEK293-Blue-hTLR-8 cells assay. In kind it is cell-based. The following applies: HEK293-Blue-hTLR8 cells, R848 stimulation, 20 hrs, SEAP reporter; read-out: HEK/hTLR8 IC50. The text has this: A stable HEK293-Blue-hTLR-8 cell line was purchased from InvivoGen (Cat. #: hkb-htlr8, San Diego, California, USA). These cells were originally designed for studying the stimulation of human TLR8 by monitoring the activation of NF-κB. A SEAP (secreted embryonic alkaline phosphatase) reporter gene was placed under the control of the IFN-β minimal promoter fused to five NF-κB and AP-1-binding sites. The SEAP was induced by activating NF-κB and AP-1 via stimulating HEK-Blue hTLR8 cells with TLR8 ligands. Therefore the reporter expression was declined by TLR8 antagonist under the stimulation of a ligand, such as R848, for incubation of 20 hrs. The cell culture supernatant SEAP reporter activity was determined using QUANTI-Blue™ kit (Cat. #: rep-qb1, Invivogen, San Diego, Ca, USA) at a wavelength of 640 nm, a detection medium that turns purple or blue in the presence of alkaline phosphatase.
HEK293-Blue-hTLR8 cells were incubated at a density of 250,000˜450,000 cells/mL in a volume of 170 μL in a 96-well plate in Dulbecco's Modified Eagle's medium (DMEM) containing 4.5 g/L glucose, 50 U/mL penicillin, […], […], 2 mM L-glutamine, 10% (v/v) heat-inactivated fetal bovine serum with addition of 20 μL test compound in a serial dilution in the presence of final DMSO at 1% and 10 μL of 60 uM R848 in above DMEM, perform incubation under 37° C. in a CO2 incubator for 20 hrs. Then 20 μL of the supernatant from each well was incubated with 180 μL Quanti-blue substrate solution at 37° C. for 2 hrs and the absorbance was read at 620˜655 nm using a spectrophotometer. The signaling pathway that TLR8 activation leads to downstream NF-κB activation has been widely accepted, and therefore similar reporter assay was modified for evaluating TLR8 antagonist.
With `C[C@@H]1CN(c2ccc(C#N)c3ncccc23)C[C@@H]2C[C@@H](NCc3ccc(N4CCNCC4)cc3)CCN21` [Example 17, 5-[(4R,8S,9aS)-4-methyl-8-[(4-piperazin-1-ylphenyl)methylamino]-1,3,4,6,7,8,9,9a-octahydropyrido[1,2-a]pyrazin-2-yl]quinoline-8-carbonitrile], the IC50 came out at 54 nM.

As to `[2H]c1ccc2c(N3C[C@@H]4C[C@H](Nc5ccc(C[C@H]6CNCCO6)cc5)CCN4[C@H](C)C3)ccc(C#N)c2n1` [Example 34, 5-[(4R,8R,9aS)-4-methyl-8-[4-[[(2S)-morpholin-2-yl]methyl]anilino]-1,3,4,6,7,8,9,9a-octahydropyrido[1,2-a]pyrazin-2-yl]-2-deuterio-quinoline-8-carbonitrile], the IC50 was 40 nM.

For the molecule `CO[C@H]1CN(c2ccc(O[C@H]3CCN4[C@@H](C3)CN(c3ccc(C#N)c5ncccc35)C[C@H]4C)cn2)C[C@H]1N` [Example 28, 5-[(4R,8S,9aS)-8-[[6-[(3R,4S)-3-amino-4-methoxy-pyrrolidin-1-yl]-3-pyridyl]oxy]-4-methyl-1,3,4,6,7,8,9,9a-octahydropyrido[1,2-a]pyrazin-2-yl]quinoline-8-carbonitrile], the IC50 came out at 7 nM.

Consider `C[C@@H]1CN(c2ccc(C#N)c3ncccc23)C[C@@H]2C[C@@H](Oc3ccc(N4CCNCC4)nc3)CCN21` [Example 16, 5-[(4R,8S,9aS)-4-methyl-8-[(6-piperazin-1-yl-3-pyridyl)oxy]-1,3,4,6,7,8,9,9a-octahydropyrido[1,2-a]pyrazin-2-yl]quinoline-8-carbonitrile], for which the IC50 stood at 8 nM.

Turning to `CO[C@H]1CN(c2ccc(C3CN([C@@H]4CCN5[C@@H](C4)CN(c4ccc(C#N)c6ncccc46)C[C@H]5C)C3)cc2)C[C@H]1N` [Example 32, 5-[(4R,8R,9aS)-8-[3-[4-[(3R,4S)-3-amino-4-methoxy-pyrrolidin-1-yl]phenyl]azetidin-1-yl]-4-methyl-1,3,4,6,7,8,9,9a-octahydropyrido[1,2-a]pyrazin-2-yl]quinoline-8-carbonitrile], the IC50 was 29 nM.

As to `C[C@@H]1CN(c2ccc(C#N)c3ncccc23)C[C@@H]2C[C@H](N3CC(c4ccc(N5CCNCC5)cc4)C3)CCN21` [Example 9, 5-[(4R,8R,9aS)-4-methyl-8-[3-(4-piperazin-1-ylphenyl)azetidin-1-yl]-1,3,4,6,7,8,9,9a-octahydropyrido[1,2-a]pyrazin-2-yl]quinoline-8-carbonitrile], the IC50 was 36 nM.

In the case of `C[C@@H]1CN(c2ccc(C#N)c3ncccc23)C[C@@H]2C[C@@H](c3ccc(CC4CNCCO4)cc3)CCN21` (stereo partly drawn) [Example 26, 5-[(4R,8S,9aS)-4-methyl-8-[4-(morpholin-2-ylmethyl)phenyl]-1,3,4,6,7,8,9,9a-octahydropyrido[1,2-a]pyrazin-2-yl]quinoline-8-carbonitrile], the IC50 came to 27 nM.

Turning to `C[C@@H]1CN(c2ccc(C#N)c3ncccc23)C[C@H]2C[C@H](c3ccc(N4CCNCC4)nc3)CCN21` [Example 15, 5-[(4R,8R,9aR)-4-methyl-8-(6-piperazin-1-yl-3-pyridyl)-1,3,4,6,7,8,9,9a-octahydropyrido[1,2-a]pyrazin-2-yl]quinoline-8-carbonitrile], the IC50 worked out at 80 nM.

On to `C[C@@H]1CN(c2ccc(C#N)c3ncccc23)C[C@@H]2C[C@H](Nc3ccc([C@H]4CNCCO4)cc3)CCN21` [Example 20, 5-[(4R,8R,9aS)-4-methyl-8-[4-[(2S)-morpholin-2-yl]anilino]-1,3,4,6,7,8,9,9a-octahydropyrido[1,2-a]pyrazin-2-yl]quinoline-8-carbonitrile], for which the IC50 came out at 50 nM.

On to `C[C@@H]1CN(c2ccc(C#N)c3ncccc23)C[C@@H]2C[C@H](NCc3ccc(N4CCNCC4)cc3)CCN21` [Example 1, 5-[(4R,8R,9aS)-4-methyl-8-[(4-piperazin-1-ylphenyl)methylamino]-1,3,4,6,7,8,9,9a-octahydropyrido[1,2-a]pyrazin-2-yl]quinoline-8-carbonitrile], for which the IC50 came out at 67 nM.
